In publication PMC11357446, “Searching for Novel HDAC6/Hsp90 Dual Inhibitors with Anti-Prostate Cancer Activity: In Silico Screening and In Vitro Evaluation” (Pharmaceuticals, 2024):
Read-outs that look alike come from different tables or passages of the source. Each block holds one compound with its values, some of them ahead of it.

Experiments:
Hsp90 = Hsp90 (UniProt ID: P07900); parameters: method as in ChEMBL [62]; settings: ChEMBL record on recombinant protein; ref ChEMBL [62]; read-out: Hsp90 Ki (Standard Value); cited from earlier work
HDAC6 = HDAC6 (UniProt ID: Q9UBN7); parameters: method as in ChEMBL [62]; settings: ChEMBL record on recombinant protein; ref ChEMBL [62]; read-out: HDAC6 IC50 (Standard Value); cited from earlier work
[1] = system: acetylated tubulin (Ac-Tub) in LNCaP cells; test: Western blot of acetylated α-Tubulin in LNCaP cells; format: cell-based, human; settings: 24 h at GI50 concentration, normalized with Tubulin
Experimental: To assess whether the observed antiproliferative activity of the selected compounds was a consequence of HDAC6-targeting, we examined the effect of the cell treatments on the expression levels of acetylated tubulin (Ac-Tub), a well-known HDAC6 target. LNCaP and PC-3 cells were treated with the tested compounds at their GI50 concentrations, and SDS-PAGE and western blot were performed. In addition, the acetylation levels of histone H3, which are mainly regulated by HDAC1, were also evaluated in order to exclude potential class I-HDAC off-target activities. We used Tubastatin-A and Geldanamycin as reference controls for cellular effects resulting from HDAC6- and Hsp90-inhibition, respectively. The results in Figure 2 show a significant increase in α-Tubulin acetylation in LNCaP cells after treatments with compounds 8, 11 and 18. Indeed, these compounds triggered a 2.9-, 5.1-, and 2.5-fold increase, respectively, compared to the control (DMSO). […].
Figure 2 Western blot analysis and relative quantification of the expression levels of acetylated-Tubulin (Ac-TUB), acetylated H3 (Ac-H3), and HSP70 in LNCaP (A,B) and PC-3 (C,D) cells treated for 24 h at GI50 concentration. Tubastatin-A was used as HDAC6-specific positive control, Geldanamycin (GELDA) as HSP90-specific positive control, and SAHA as pan-HDAC inhibitor. Protein expression was normalized with Tubulin levels (Ac-TUB and HSP70) or total H3 (Ac-H3). Quantification is reported as fold change in treated cells versus DMSO control (CTR), arbitrarily set at 1 (one sample t-test p-values: * p < 0.05, ** p < 0.01, *** p < 0.001, **** p < 0.0001; n = 3).
Cell treatment. PC-3 and LNCaP cells were grown in 12-well tissue-culture plates and treated with test compounds at the evaluated GI50 concentration for each candidate inhibitor for 24 h. DMSO was used as a negative control, while Tubastatin-A and Geldanamycin were used as positive controls for HDAC6 and Hsp90 inhibition, respectively. Vorinostat (SAHA) was used as a pan-HDACi control. […] Protein quantitation was performed with Pierce Detergent Compatible Bradford Assay (#23246, Thermo Fisher Scientific, MA, USA), and equivalent amounts of cellular extracts were resolved by SDS-PAGE, transferred to PVDF or Nitrocellulose membrane with Trans-Blot Turbo Transfer System (Bio-Rad, Hercules, CA, USA), and immunoblotted with the following primary antibodies, diluted 1:1000 in 1× TBS with 1 mg/mL BSA: Anti-Histone H3 (#PA5-16183, Invitrogen, Thermo Fisher Scientific, MA, USA), Anti-acetylated histone H3 (#sc-518011, Santa Cruz Biotechnology, Inc., Dallas, TX, USA), Anti-Tubulin (#E-AB-20073, Elabscience, Houston, TX, USA), Anti-acetylated α-tubulin (#sc-23950, Santa Cruz), and Anti-HSP70 (#4872S, Cell Signaling Technology, Inc., Danvers, MA, USA). […]

[2] = system: LNCaP prostate cancer cells; test: Cell viability assay (PrestoBlue) on LNCaP cells; format: cell-based, human; settings: Homo sapiens, LNCaP, 72 h, read-out: LNCaP GI50
Experimental: (§1) The human prostate cancer cell line PC-3 (ATCC Cat# CRL-1435) was grown in Ham’s F12 (Biowest, Nuaillé, France) medium, while the human prostate cancer cell line LNCaP (ATCC Cat# CRL-1740) was grown in RPMI 1640 (Biowest, Nuaillé, France) medium. Both media were supplemented with 10% Fetal Bovine Serum (FBS, Gibco, Fisher Scientific Italia, Segrate, Italy), 2 mM glutamine, 100 U/mL penicillin, and 100 μg/mL streptomycin. PC-3 and LNCaP cells were maintained at 37 °C in a humidified 5% CO2 atmosphere.
(§2) PC-3 and LNCaP cells were seeded at a density of 4000 and 6000 cells/well into a 96-well plate, respectively, together with a calibration curve of known cell numbers. The following day, the cells were treated with the indicated test compounds at different concentrations starting at 75μM with 2-fold serial dilutions. Cell viability was evaluated after 72h by colorimetric MTT (PC-3) or PrestoBlue™ (LNCaP) cell viability reagents. A total of 0.5 mg/mL of thiazolyl blue tetrazolium bromide (MTT) (Sigma-Aldrich, St. Louis, MO, USA) in Ham’s F12 medium was added to the wells, and the plate was incubated at 37 °C for 2 h. Medium containing unconverted MTT was removed, and 100 μL of MTT solvent (4 mM HCl, 0.1% NP40, in isopropyl alcohol) was added to the wells in order to solubilize MTT crystals. After 15 min of incubation at room temperature, the absorbance values at 570 nm were obtained with a Multiskan FC Microplate Photometer (Thermo Fisher Scientific, Waltham, MA, USA). PrestoBlue reagent (#A13261, Thermo Fisher Scientific, Waltham, MA, USA) was added to the medium (1:10 v/v) and incubated for 1 h at 37 °C. Cell viability was calculated by quantifying PrestoBlue reduction by measuring the absorbance at 570 and 620 nm, according to the manufacturer’s protocol. The viability of untreated cells was arbitrarily set at 100%, and the concentration at which cellular growth is inhibited by 50% (GI50) was determined. Three independent experiments were performed.

[3] = system: PC-3 prostate cancer cells; test: Cell viability assay (MTT) on PC-3 cells; format: cell-based, human; settings: Homo sapiens, PC-3, 72 h, read-out: PC-3 GI50
Experimental: as §1, §2

HDAC6 recombinant enzyme = target: T1, HDAC6 recombinant enzyme (Homo sapiens, UniProt Q9UBN7); test: Fluorimetric HDAC6 assay; format: biochemical; settings: singlicate
T1 sequence (Q9UBN7 1-1215): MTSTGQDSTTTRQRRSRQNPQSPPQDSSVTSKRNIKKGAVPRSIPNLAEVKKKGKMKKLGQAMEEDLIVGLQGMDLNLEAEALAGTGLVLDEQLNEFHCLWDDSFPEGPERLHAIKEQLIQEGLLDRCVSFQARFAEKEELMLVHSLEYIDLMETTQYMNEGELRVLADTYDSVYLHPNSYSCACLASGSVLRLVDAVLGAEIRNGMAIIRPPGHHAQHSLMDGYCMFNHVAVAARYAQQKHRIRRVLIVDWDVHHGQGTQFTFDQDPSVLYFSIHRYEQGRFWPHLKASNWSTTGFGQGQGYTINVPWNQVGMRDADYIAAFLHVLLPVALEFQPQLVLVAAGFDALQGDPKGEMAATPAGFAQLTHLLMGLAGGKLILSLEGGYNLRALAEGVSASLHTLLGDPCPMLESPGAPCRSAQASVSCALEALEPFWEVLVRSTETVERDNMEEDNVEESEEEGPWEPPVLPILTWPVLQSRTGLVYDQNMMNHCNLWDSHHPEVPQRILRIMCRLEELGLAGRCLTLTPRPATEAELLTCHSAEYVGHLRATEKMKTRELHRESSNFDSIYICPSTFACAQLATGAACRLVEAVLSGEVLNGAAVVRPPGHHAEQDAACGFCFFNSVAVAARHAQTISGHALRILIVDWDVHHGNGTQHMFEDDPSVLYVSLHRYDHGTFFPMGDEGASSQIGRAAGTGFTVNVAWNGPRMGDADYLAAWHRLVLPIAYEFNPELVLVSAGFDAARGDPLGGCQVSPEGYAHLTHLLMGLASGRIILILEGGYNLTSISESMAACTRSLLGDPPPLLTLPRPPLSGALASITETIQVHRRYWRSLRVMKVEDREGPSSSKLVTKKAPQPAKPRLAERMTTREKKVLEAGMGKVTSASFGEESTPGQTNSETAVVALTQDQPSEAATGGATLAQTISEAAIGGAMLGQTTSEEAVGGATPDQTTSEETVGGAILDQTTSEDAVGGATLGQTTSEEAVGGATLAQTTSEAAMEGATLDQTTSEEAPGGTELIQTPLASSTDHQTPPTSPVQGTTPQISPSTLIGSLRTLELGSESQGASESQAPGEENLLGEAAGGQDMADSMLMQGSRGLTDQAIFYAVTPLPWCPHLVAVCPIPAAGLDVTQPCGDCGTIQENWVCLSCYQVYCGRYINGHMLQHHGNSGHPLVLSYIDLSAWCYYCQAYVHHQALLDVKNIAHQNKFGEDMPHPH
Experimental: In vitro assessments of compounds on the HDAC6 enzyme were performed, as described in our previous works. […] The blank employed for curve fitting was evaluated on a solution of the buffer containing a concentration of […] of DMSO. IC50 values were calculated by using the GraphPad Prism 4 program based on a sigmoidal dose–response equation.

[4] = 72 h treatment, PrestoBlue, mean of three independent experiments ± SEM
[5] = 72 h treatment, MTT, mean of three independent experiments ± SEM

SMILES: CCNC(=O)c1noc(-c2cc(Cl)c(O)cc2O)c1-c1ccc(CN2CCOCC2)cc1C [CHEMBL4060353]
Ki (Hsp90): 32 nM

SMILES: CC(C)CN1CC(=O)N2Cc3c(c4ccccc4n3Cc3ccc(C(=O)NO)cc3)CC2C1=O (centres unmarked) [CHEMBL4284297]
IC50 (HDAC6): 3.78 nM

SMILES: O=C(Nc1ccnc(C(F)(F)F)c1)c1ccc(-c2noc(C(F)(F)F)n2)cc1 [CHEMBL3692610]
IC50 (HDAC6): 8600 nM

SMILES: Cc1c(C)n(Cc2ccc(C(=O)NO)cc2)c2ccccc12 [CHEMBL3971436]
IC50 (HDAC6): 4.08 nM

SMILES: CN1CCc2c(c3ccccc3n2Cc2ccc(C(=O)NO)cc2)C1 [Tubastatin-A]
α-Tubulin acetylation, fold increase compared to the control (DMSO) [1]: 3.3 fold | GI50 [2, 4]: 5900 ± 1500 nM | GI50 [3, 5]: 11100 ± 1600 nM

SMILES: C[C@H](CN1CCCCC1)NC(=O)c1ccc(-c2noc(C(F)(F)F)n2)cc1F [CHEMBL3692663]
IC50 (HDAC6): 3000 nM

SMILES: O=C(Nc1cccnc1)c1ccc(-c2noc(C(F)(F)F)n2)cc1 [CHEMBL3692584]
IC50 (HDAC6): 4800 nM

SMILES: O=C(NCc1ccc(CN2CCOCC2)cc1)c1ccc(-c2noc(C(F)(F)F)n2)cc1 [CHEMBL3692580]
IC50 (HDAC6): 5700 nM

SMILES: CN1CC(=O)N2Cc3c(c4ccccc4n3Cc3ccc(C(=O)NO)cc3)CC2C1=O (centres unmarked) [CHEMBL4292944]
IC50 (HDAC6): 13.6 nM

SMILES: COc1cc(NC(=O)c2ccc(-c3noc(C(F)(F)F)n3)cc2)ccn1 [CHEMBL3692603]
IC50 (HDAC6): 8300 nM

SMILES: O=C(Cc1ccc(-c2noc(C(F)(F)F)n2)cc1)N1CCOCC1 [CHEMBL3688148]
IC50 (HDAC6): 5500 nM

SMILES: CC(C)(C)c1cc2ccccc2n1Cc1ccc(C(=O)NO)cc1 [CHEMBL4468860]
IC50 (HDAC6): 2000 nM

GI50 [2, 4]: 50 ± 20 nM | GI50 [3, 5]: 30 ± 20 nM
SMILES: COC1=C2C[C@@H](C)C[C@H](OC)[C@H](O)[C@@H](C)/C=C(\C)[C@H](OC(N)=O)[C@@H](OC)/C=C\C=C(/C)C(=O)NC(=CC1=O)C2=O [Geldanamycin]

SMILES: O=C(NC1CCCCC1O)c1ccc(-c2noc(C(F)(F)F)n2)cc1 (centres unmarked) [CHEMBL3692597]
IC50 (HDAC6): 7100 nM

SMILES: O=C(Nc1ccncc1)c1ccc(-c2noc(C(F)(F)F)n2)cc1 [CHEMBL3692583]
IC50 (HDAC6): 2100 nM

SMILES: CC(C)(C)c1ccc(CN2Cc3ccc(/C=C/C(=O)NO)cc3C2=O)cc1 [CHEMBL247218]
IC50 (HDAC6): 990 nM

SMILES: Cc1cc(NC(=O)c2ccc(-c3noc(C(F)(F)F)n3)cc2F)cc(C)n1 [CHEMBL3692624]
IC50 (HDAC6): 2500 nM

IC50 (HDAC6 recombinant enzyme): 17000 nM | GI50 [2, 4]: 9500 ± 700 nM | GI50 [3, 5]: 9500 ± 500 nM
SMILES: N#Cc1ccc(NC(=O)c2cccc(-c3noc(C(F)(F)F)n3)c2)c(O)c1 [Compound 4]

SMILES: N#Cc1cc(NC(=O)c2ccc(-c3noc(C(F)(F)F)n3)cc2)ccn1 [CHEMBL3692609]
IC50 (HDAC6): 6100 nM

SMILES: C[C@H](CN1CCOCC1)NC(=O)c1ccc(-c2noc(C(F)(F)F)n2)cc1F [CHEMBL3692681]
IC50 (HDAC6): 3200 nM

SMILES: O=C(CCCCCCC(=O)Nc1ccccc1)NO [SAHA, Vorinostat]
GI50 [2]: 1300 ± 300 nM | GI50 [3]: 1900 ± 200 nM

SMILES: C[C@H](CN1CCOCC1)NC(=O)c1ccc(-c2noc(C(F)(F)F)n2)cc1 [CHEMBL3692680]
IC50 (HDAC6): 6700 nM

SMILES: Cc1cc(NC(=O)c2ccc(-c3noc(C(F)(F)F)n3)cc2)cc(C)n1 [CHEMBL3692604]
IC50 (HDAC6): 5300 nM

SMILES: CC(C)c1nc2ccccc2n1Cc1ccc(C(=O)NO)cc1 [CHEMBL3926575]
IC50 (HDAC6): 47 nM

SMILES: O=C(/C=C/c1ccc2c(c1)C(=O)N(Cc1ccccc1)C2)NO [CHEMBL247217]
IC50 (HDAC6): 230 nM

SMILES: O=C(NO)c1ccc(CN2C(=O)CNC(=O)[C@H]2Cc2c[nH]c3ccccc23)cc1 [CHEMBL481719]
IC50 (HDAC6): 110 nM
